{"source": "patent US7196074B2", "about": "“Methods of making, using and pharmaceutical formulations comprising 7α, 11β-dimethyl-17β-hydroxyestra-4, 14-dien-3-one and 17 esters thereof” (The United States of America as represented by the …, priority 2000, dated 2007)", "key": {"[1]": {"tested_on": "ventral prostate weight", "experiment": "Oral androgenic potency, ventral prostate weight assay in orchidectomized immature rats (gavage daily for seven days)", "type": "in vivo, Sprague-Dawley rats", "details": "ventral prostate weight; for oral androgenic activity, times as potent as methyltestosterone: gavage daily for 7 days in 10% ethanol/sesame oil (oily carrier)", "description": "(§1) Immature (about 21-day-old) Sprague-Dawley rats were orchidectomized under anesthesia, and randomly assignee to groups of ten animals for each dose level of the active undergoing testing. Each active was dissolved in 10% ethanol/sesame oil and administered by gavage (oral) each day for seven days beginning on the date of the orchidectomy. The animals were sacrificed 24 hours after the last dose, and the ventral prostate and seminal vesicles were excised, cleaned of fat and connective tissue, blotted on moist filter paper and weighed to the nearest 0.1 mg. See, e.g., Hershberger, L. et al, Myotrophic Activity of 19-nortestosterone And Other Steroids Determined By Modified Levator And Muscle Method, Proc. Soc. Exptl. Biol. Med 83 175–180 (1953). Regression analysis was performed by conventional methods using a PROPHET data management system. See, e.g., Bliss, C., The Statistics of Bioassay (Academic Press, New York, 1952); Hollister, C., Nucleic Acids Res. 16 1873–75 (1988). Ventral prostate weight was used as the endpoint because it is the sensitive organ to androgenic stimulation.\nas §1, with “(oral) or subcutaneous injection” for “(oral)”, “mg.” for “mg. See, e.g., Hershberger, L. et al, Myotrophic Activity of 19-nortestosterone And Other Steroids Determined By Modified Levator And Muscle Method, Proc. Soc. Exptl. Biol. Med 83 175–180 (1953).”, “system.” for “system. See, e.g., Bliss, C., The Statistics of Bioassay (Academic Press, New York, 1952); Hollister, C., Nucleic Acids Res. 16 1873–75 (1988).”\nImmature (about 21-day-old) Sprague-Dawley rats were orchidectomized under anesthesia, and randomly assignee to groups of ten animals for each dose level of the active undergoing testing. Four dosage forms were prepared. The first two forms constituted a solution of each active in 10% ethanol/sesame oil. The third and fourth dosage forms constituted a suspension of each active in an aqueous carrier (as described in Example 2, supra). These dosage forms were then administered by gavage (oral) to separate animal groups each day for seven days beginning on the date of the orchidectomy. Each carrier was also administered (alone) to separate groups of animals as a control. The animals were sacrificed 24 hours after the last dose, and the ventral prostate and seminal vesicles were excised, cleaned of fat and connective tissue, blotted on moist filter paper and weighed to the nearest 0.1 mg. See, e.g., Hershberger, L. et al, Myotrophic Activity of 19-nortestosterone And Other Steroids Determined By Modified Levator And Muscle Method, Proc. Soc. Exptl. Biol. Med. 83 175–180 (1953). Regression analysis was performed by conventional methods using a PROPHET data management system. See, e.g., Bliss, C., The Statistics of Bioassay (Academic Press, New York, 1952); Hollister, C., Nucleic Acids Res. 16 1873–75 (1988). Ventral prostate weight was used as the endpoint because it is the sensitive organ to androgenic stimulation.\nImmature (about 21 day old) Sprague male rats were orchidectomized under anesthesia, and randomly assignee to groups often animals for each dose level of the active undergoing testing. Animals were maintained under standard conditions of housing and had free access to food and water. Illumination was controlled for 14 hour periods of light and 10 hours of darkness. Each active was dissolved in 10% ethanol/sesame oil and administered by gavage (oral) each day for seven days beginning on the date of the orchidectomy. […]"}, "[2]": {"experiment": "Serum levels of the free alcohol after single subcutaneous injection of ester", "type": "in vivo, Sprague-Dawley rats", "details": "single subcutaneous 0.6 mg suspended in aqueous carrier; 10 week observation period, FIG. 10", "description": "Immature (about 21-day-old) Sprague-Dawley rats were orchidectomized under anesthesia, and randomly assignee to groups of 40 or more. Animals received a single subcutaneous injection of 0.6 mg of each ester in 0.2 ml of an aqueous suspending carrier and/or oily carrier (10% ethanol/90% sesame oil or ethyl oleate) on the date of the orchidectomy. In cases where the ester was not solid at room temperature, 10% ethanol/sesame oil or ethyl oleate was used as the carrier. In this example, the carrier used to provide the aqueous suspension was formulated as follows: 1 g benzyl alcohol, 0.5 g sodium carboxylethyl cellulose 50, 0.376 g disodium hydrogen phosphate dihydrate, 1.495 g sodium dihydrogen phosphate dihydrate, with water for injection (WFI) being added to bring volume of the carrier up to 100 ml."}, "[3]": {"details": "gavage daily for 7 days in 10% ethanol/sesame oil"}}}
{"smiles": "CCCC[C@H]1CC[C@H](C(=O)O[C@H]2CC[C@H]3[C@H]4[C@H]([C@@H](C)C[C@]23C)[C@H]2CCC(=O)C=C2C[C@H]4C)CC1", "note": "(relative stereo) [Compound I, 7α,11β-Dimethyl-17β-hydroxy-4-estren-3-one 17β-trans-4-n-butylcyclohexane carboxylate]", "values": [{"measurement": "oral androgenic activity, times as potent as methyltestosterone", "setting": "[1]", "value": 3.77, "unit": "times"}, {"measurement": "oral androgenic activity, times as potent as testosterone bucyclate (1781 V-1)", "setting": "[1]; [3]", "value": "at least 4 times"}, {"measurement": "oral androgenic activity, times as potent as the free alcohol (1321 D)", "setting": "[1]; [3]", "value": "at least 4 times"}, {"measurement": "oral androgenic activity, times more potent than testosterone (111-C)", "setting": "[1]; [3]", "value": "10–100 times"}, {"measurement": "oral androgenic activity, times more potent than testosterone enanthate (112a)", "setting": "[1]; [3]", "value": "10–100 times"}, {"measurement": "serum levels of the free alcohol (7α,11β-dimethyl-19-nortestosterone)", "setting": "[2]", "value": "highest levels of the free alcohol"}]}
{"smiles": "CCCCCCCCCCC(=O)O[C@H]1CC[C@H]2[C@H]3[C@H]([C@@H](C)C[C@]12C)[C@H]1CCC(=O)C=C1C[C@H]3C", "note": "[Compound II, 7α,11β-dimethyl-17β-hydroxyestr-4-en-3-one 17-undecanoate]", "values": [{"measurement": "oral androgenic activity, times as potent as methyltestosterone", "setting": "[1]", "value": 2.36, "unit": "times"}, {"measurement": "oral androgenic potency relative to methyltestosterone in the same aqueous carrier", "setting": "[1]; gavage daily for 7 days, suspension in aqueous carrier", "value": 0.95, "unit": "times"}]}
